Test results as given in patent publication US20070219128A1, “Medical and health-care uses of pufferfish type I collagen extract and processes for producing said extract” (NANJING BESSON PHARMACY CO., LTD, priority 2003, published 2007).

Tests used:
[1] = tested on: pylorus-ligated Shay rat gastric ulcer; test: Pylorus-ligated Shay rat gastric ulcer; type: in vivo, SD rats; conditions: 80 mg/kg, ig; mean ± SD
Method: 50 SD rats with a body weight of 180 to 200 g and equal numbers of female and male were provided by the Experimental Animal Center of Nanjing Medical University, and the tests were conducted according to the methods in “Collection of Guidelines for Preclinical Studies of New Drugs (Western Medicines)” edited by China Ministry of Health.

[2] = tested on: acetic acid-burn induced gastric ulcer in rats; test: Acetic acid-burn induced gastric ulcer in rats; type: in vivo; conditions: 80 mg/kg, ig; mean ± SD
Method: 50 SD rats with a body weight of 180 to 200 g and equal numbers of female and male were provided by the Experimental Animal Center of Nanjing Medical University, and the tests were conducted according to the methods in “Collection of Guidelines for Preclinical Studies Of New Drugs (Western Medicines)” edited by China Ministry of Health.

[3] = tested on: cysteamine-induced rat duodenal ulcer; test: Cysteamine-induced rat duodenal ulcer; type: in vivo, SD rats; conditions: 20 mg/kg
Method: 50 male SD rats with a body weight of 250 to 300 g were used, and cysteamine was commercially available from Sigma Company. The tests were conducted according to the methods in “Drug Discovery and Evaluation—Pharmacological Assays” (H. G. Vogel, W. H. Vogel. Chinese version, translated by Du Guanhua, published by Science Publishing House).

[4] = tested on: acetic acid-induced rat colonitis; test: 10% acetic acid-induced rat ulcerative colonitis; type: in vivo, SD rats; conditions: 10 mg/kg, mean ± SD
Method: The test was conducted according to the method in the document (Ritzpatrick, R. et al., Agents Actions. 1990, 30:393-402). SD rats were subjected to rectoclysis to form models of colonitis. From the 4th day after the models had been made, the rats were intragastrically administrated for 4 days.

mouse gastric emptying = test: Mouse gastric emptying (phenol red method); type: in vivo, Kunming mice; conditions: 0.1 mg/kg; mean ± SD
Method: 105 Kunming mice with a body weight of from 20 to 25 g and equal numbers of male and female were used. The test was conducted according to the methods in “Collection of Guidelines for Preclinical Studies of New Drugs (Western Medicines)” edited by China Ministry of Health, and the phenol red method (Shi G., et al. Gut, 41:612-618, 1997).

[5] = tested on: TNBS-induced rat colonitis; test: TNBS-induced rat colonitis; type: in vivo, SD rats; conditions: 0.3 g/kg, intragastric for 7 days; mean ± SD
Method: The test was counted according to the method in the document (Morris, C. P. et al: Gastroenterology. 1989, 96:795-803). TNBS was commercially available from Sigma Company. SD rats were subjected to rectoclysis of 100 mg/kg of TNBS to form models of colonitis. Each group included 10 rats. From the 14th day after the models had been made, the rats were intragastrically administrated for 7 days. The rats were killed by drawing their necks and were dissected, and their colon sections were histopathologically observed.

[6] = tested on: anhydrous ethanol-induced rat gastric mucosa damage; test: Anhydrous ethanol-induced rat gastric mucosa damage; type: in vivo, SD rats; conditions: 100 mg/kg, ig; mean ± SD
Method: 60 SD rats with equal numbers of female and male were provided by the Experimental Animal Center of Nanjing Medical University, and the tests were conducted according to the methods in “Collection of Guidelines for Preclinical Studies of New Drugs (Western Medicines)” edited by China Ministry of Health.

[7] = tested on: PGE2 content in gastric mucosa; test: PGE2 content in gastric mucosa of rat with indomethacin-induced gastric ulcer (radioimmunoassay); type: in vivo, SD rats; conditions: 100 mg/kg; mean ± SD
Method: 60 SD rats with a body weight of 180 to 200 g and equal numbers of male and female were used, Indomethacin was commercially available from Sigma Company. The PGE2 content was measured by radioimmunoassay. The tests were conducted according to the methods in “Drug Discovery and Evaluation—Pharmacological Assays” (H. G. Vogel, W. H. Vogel. Chinese version, translated by Du Guanhua, published by Science Publishing House).

CN/C(=N/CCSCc1nc[nH]c1C)NC#N [Cimetidine]
Ulcer index [1]: 15.8 ± 1.5 | Ulcer area (mm^2) [2]: 44.7 ± 38.4 mm^2

NC(N)=Nc1nc(CSCCC(N)=NS(N)(=O)=O)cs1 [Famotidine]
Inhibition ratio (%) [3]: 27.27% | Ulcer index ([3]; mean ± SD): 2.0 ± 1.3 | Score of ulcer index ([4]; intragastric for 4 days): 4.14 ± 3.76 | Ratio of bowel weight to body weight (×10^−2) [4]: 0.92 ± 0.45 ×10^−2

CN(C)C(=O)Oc1ccc[n+](C)c1 [Pyridostigmine bromide]
Amount of residual phenol red in stomach (mouse gastric emptying): 0.47 ± 0.36 mg | Gastric emptying ratio (%) (mouse gastric emptying): 93.8 ± 4.8 %

O=C(O)c1cc(/N=N/c2ccc(S(=O)(=O)Nc3ccccn3)cc2)ccc1O [Sulfasalazine]
Increment of body weight [5]: 68.89 ± 21.64

Bismuth Potassium Citrate
Ulcer index [6]: 15.0 ± 6.0 | PGE2 (pg/mg protein) [7]: 170 ± 104 pg/mg protein
